Read-outs that look alike come from different tables or passages of the source. Numbered stars: 1 amine (or outer) side, 2 acyl side, 3 side chain; on linkers, the order of the positions; unused ones are H or OH. Square brackets hold non-standard residues; d marks the D form. Side chains are listed from the residue outwards. Peptide text beside a SMILES is read from it. * marks the point of attachment. C18 diacid = O=C(O)CCCCCCCCCCCCCCCCC(=O)*; γGlu = O=C(O)[C@H](CCC(=O)[*:2])N[*:1]; AEEA = NCCOCCOCC(=O)O; Aib = CC(C)(N)C(=O)O
Tests used:
Assay type in all cases: cell-based
human GLP-1 R = biological target: T1, human GLP-1 R (Homo sapiens, UniProt P43220); test: cAMP induction in HEK293 cells expressing human GLP-1 R (AlphaScreen cAMP kit); details: average EC50, cAMP, HEK293 cells expressing human GLP-1 R, read-out: GLP1 R (EC50 in nM)
T1 construct: expressed in transfected cells
Protocol: (§1) Briefly, HEK293 cells expressing the human GIP R, GLP-1 R or GCG R (stable cell lines generated through transfection of the cDNA for human GIP R, GLP-1 R or GCG R and selection of stable clones) were seeded at 30,000 cells/well in 96-well microtiter plates coated with 0.01% poly-L-lysine, and grown for 1 day in culture in 200 μl growth medium (DMEM, 10% FCS, Penicillin (100 IU/ml), Streptomycin (100 μg/ml)). On the day of analysis, growth medium was removed and the cells were washed once with 150 μl Tyrode's buffer (Tyrode's Salts (9.6 g/l), 10 mM HEPES, pH 7.4). […] The Assay buffer was removed and cells are lysed in 80 μl Lysis buffer (0.1% w/v BSA, 5 mM HEPES, 0.3% v/v Tween-20) per well. From each well 10 μl of lysed cells were transferred to a 384-well plate and mixed with 15 μl bead-mix (1 Unit/15 μl anti-cAMP Acceptor Beads, 1 Unit/15 μl Donor Beads, and 1 Unit/15 μl Biotinylated cAMP in Assay Buffer). The plates were mixed and incubated in the dark for an hour at room temperature before measuring using an Envision™ plate reader (Perkin-Elmer).
(§2) The resulting cAMP curves were plotted as absolute cAMP concentrations (nM) over log (test compound concentration) and analyzed using the curve fitting program XLfit.
(§3) Parameters calculated to describe both the potency as well as the agonistic activity of each test compound on the receptors were:
(§4) EC50, a concentration resulting in a half-maximal elevation of cAMP levels, reflecting the potency of the test compound.

human GCG R = biological target: T2, human GCG R (Homo sapiens, UniProt P47871); test: cAMP induction in HEK293 cells expressing human GCG R (AlphaScreen cAMP kit)
T2 construct: expressed in transfected cells

human GIP R = biological target: T3, human GIP R (Homo sapiens, UniProt P48546); test: cAMP induction in HEK293 cells expressing human GIP R (AlphaScreen cAMP kit)
T3 construct: expressed in transfected cells
T3 sequence (P48546 22-466): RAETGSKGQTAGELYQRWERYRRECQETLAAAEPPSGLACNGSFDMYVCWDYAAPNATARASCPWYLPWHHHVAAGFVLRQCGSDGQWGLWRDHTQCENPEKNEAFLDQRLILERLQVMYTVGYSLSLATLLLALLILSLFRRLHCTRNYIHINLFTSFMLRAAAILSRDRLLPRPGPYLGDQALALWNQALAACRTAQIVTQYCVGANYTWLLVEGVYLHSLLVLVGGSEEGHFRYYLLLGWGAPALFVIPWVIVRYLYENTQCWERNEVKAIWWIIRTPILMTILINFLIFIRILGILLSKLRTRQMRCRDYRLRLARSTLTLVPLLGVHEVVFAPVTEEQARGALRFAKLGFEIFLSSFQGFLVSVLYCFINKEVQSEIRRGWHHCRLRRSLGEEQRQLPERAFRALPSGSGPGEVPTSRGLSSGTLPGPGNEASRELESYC
Protocol: as §1, §2, §3, §4

[1] = GIP R (EC50 in nM), Table 2, average EC50, cAMP
[2] = Table 2b (most comprehensive data)
[3] = Table 2b (most comprehensive data), average EC50, cAMP, HEK293 cells expressing human GCG R, read-out: GCG R (EC50 in nM)
[4] = Table 2b (most comprehensive data), average EC50, cAMP, read-out: GIP R (EC50 in nM)

T2 sequence (P47871 26-477): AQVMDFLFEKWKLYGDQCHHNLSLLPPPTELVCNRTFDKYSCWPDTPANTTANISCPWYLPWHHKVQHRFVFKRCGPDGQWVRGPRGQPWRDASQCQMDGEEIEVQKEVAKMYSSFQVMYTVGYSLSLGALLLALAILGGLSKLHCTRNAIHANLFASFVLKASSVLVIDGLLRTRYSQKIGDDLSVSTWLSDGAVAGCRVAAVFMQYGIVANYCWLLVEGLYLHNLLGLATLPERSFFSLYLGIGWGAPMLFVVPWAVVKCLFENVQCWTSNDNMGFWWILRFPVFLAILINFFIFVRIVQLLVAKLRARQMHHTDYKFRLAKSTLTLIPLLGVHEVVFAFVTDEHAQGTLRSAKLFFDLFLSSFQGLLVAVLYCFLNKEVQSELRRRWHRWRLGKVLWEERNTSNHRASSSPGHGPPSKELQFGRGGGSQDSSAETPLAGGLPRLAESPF
T1 sequence (P43220 24-463): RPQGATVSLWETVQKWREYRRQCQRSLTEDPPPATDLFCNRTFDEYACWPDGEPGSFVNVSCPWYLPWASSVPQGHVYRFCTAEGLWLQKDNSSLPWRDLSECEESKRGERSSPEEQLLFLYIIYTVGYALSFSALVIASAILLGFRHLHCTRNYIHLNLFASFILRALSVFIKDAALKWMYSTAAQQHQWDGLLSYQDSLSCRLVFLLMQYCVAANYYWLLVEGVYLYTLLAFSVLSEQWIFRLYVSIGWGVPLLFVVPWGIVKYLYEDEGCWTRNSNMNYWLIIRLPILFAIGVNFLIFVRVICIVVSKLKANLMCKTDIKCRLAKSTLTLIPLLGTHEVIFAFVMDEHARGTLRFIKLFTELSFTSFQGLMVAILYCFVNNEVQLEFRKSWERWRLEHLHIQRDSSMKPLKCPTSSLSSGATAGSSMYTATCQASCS

Structure (SMILES)	EC50 (human GLP-1 R; Table 2)	EC50 (human GCG R)	EC50 (human GIP R; [1])	EC50 (human GIP R; GIP R (EC50 in nM), Table 2b (most comprehensive data), average EC50, cAMP)	EC50 (human GLP-1 R; [2])	EC50 (human GCG R; [3])	EC50 (human GIP R; [4])	EC50 (human GCG R; Table 2, average EC50, cAMP, HEK293 cells expressing human GCG R, read-out: GCG R (EC50 in nM))	EC50 (human GIP R; Table 2, average EC50, cAMP, read-out: GIP R (EC50 in nM))
CC[C@H](C)[C@H](NC(=O)[C@H](CO)NC(=O)[C@H](Cc1ccc(O)cc1)NC(=O)[C@H](CC(=O)O)NC(=O)[C@H](CO)NC(=O)[C@@H](NC(=O)[C@H](Cc1ccccc1)NC(=O)[C@@H](NC(=O)CNC(=O)[C@H](CCC(N)=O)NC(=O)C(C)(C)NC(=O)[C@@H](N)Cc1ccc(O)cc1)[C@@H](C)O)[C@@H](C)O)C(=O)N[C@@H](Cc1ccc(O)cc1)C(=O)N[C@@H](CC(C)C)C(=O)N[C@@H](CC(=O)O)C(=O)N[C@@H](CO)C(=O)N[C@@H](CCCCN)C(=O)N[C@@H](C)C(=O)N[C@@H](C)C(=O)N[C@@H](Cc1c[nH]cn1)C(=O)N[C@@H](CC(=O)O)C(=O)N[C@@H](Cc1ccccc1)C(=O)N[C@H](C(=O)N[C@@H](CCC(=O)O)C(=O)N[C@@H](Cc1c[nH]c2ccccc12)C(=O)N[C@@H](CC(C)C)C(=O)N[C@@H](CC(C)C)C(=O)N[C@@H](CO)C(=O)N[C@@H](C)C(N)=O)C(C)C [Compound 5] (HELM PEPTIDE1{Y.[Aib].Q.G.T.F.T.S.D.Y.S.I.Y.L.D.S.K.A.A.H.D.F.V.E.W.L.L.S.A.[am]}$$$$V2.0)	0.0092 nM	0.065 nM	0.17 nM	0.009 nM					
CC[C@H](C)[C@H](NC(=O)[C@H](CO)NC(=O)[C@H](Cc1ccc(O)cc1)NC(=O)[C@H](CC(=O)O)NC(=O)[C@H](CO)NC(=O)[C@@H](NC(=O)[C@H](Cc1ccccc1)NC(=O)[C@@H](NC(=O)CNC(=O)[C@H](CCC(N)=O)NC(=O)C(C)(C)NC(=O)[C@@H](N)Cc1ccc(O)cc1)[C@@H](C)O)[C@@H](C)O)C(=O)N[C@@H](Cc1ccc(O)cc1)C(=O)N[C@@H](CC(C)C)C(=O)N[C@@H](CCC(=O)O)C(=O)N[C@@H](CCCCN)C(=O)N[C@@H](CCCCNC(=O)COCCOCCNC(=O)COCCOCCNC(=O)CC[C@H](NC(=O)CCCCCCCCCCCCCCCCC(=O)O)C(=O)O)C(=O)N[C@@H](C)C(=O)N[C@@H](CCC(N)=O)C(=O)N[C@@H](CCCNC(=N)N)C(=O)N[C@@H](C)C(=O)N[C@@H](Cc1ccccc1)C(=O)N[C@H](C(=O)N[C@@H](CCC(=O)O)C(=O)N[C@@H](Cc1c[nH]c2ccccc12)C(=O)N[C@@H](CC(C)C)C(=O)N[C@@H](CC(C)C)C(=O)N[C@@H](CCCNC(=N)N)C(=O)N[C@@H](C)C(N)=O)C(C)C [Compound 51] (H-Y[Aib]QGTFTSDYSIYLEKK([AEEA-AEEA-γGlu-C18 diacid])AQRAFVEWLLRA-NH2)					0.026 nM	1.4 nM	0.033 nM		
CCCCCCCCCCCCCCCC(=O)N[C@@H](CCC(=O)NCCCC[C@H](NC(=O)[C@H](CO)NC(=O)[C@H](CC(=O)O)NC(=O)[C@H](CC(C)C)NC(=O)[C@H](Cc1ccc(O)cc1)NC(=O)[C@H](CCCCN)NC(=O)[C@H](CO)NC(=O)[C@H](Cc1ccc(O)cc1)NC(=O)[C@H](CC(=O)O)NC(=O)[C@H](CO)NC(=O)[C@@H](NC(=O)[C@H](Cc1ccccc1)NC(=O)[C@@H](NC(=O)CNC(=O)[C@H](CCC(N)=O)NC(=O)C(C)(C)NC(=O)[C@@H](N)Cc1ccc(O)cc1)[C@@H](C)O)[C@@H](C)O)C(=O)N[C@@H](C)C(=O)N[C@@H](C)C(=O)N[C@@H](Cc1c[nH]cn1)C(=O)N[C@@H](CC(=O)O)C(=O)N[C@@H](Cc1ccccc1)C(=O)N[C@H](C(=O)N[C@@H](CCC(=O)O)C(=O)N[C@@H](Cc1c[nH]c2ccccc12)C(=O)N[C@@H](CC(C)C)C(=O)N[C@@H](CC(C)C)C(=O)N[C@@H](CO)C(=O)N[C@@H](C)C(N)=O)C(C)C)C(=O)O [Compound 2] (HELM PEPTIDE1{Y.[Aib].Q.G.T.F.T.S.D.Y.S.K.Y.L.D.S.K.A.A.H.D.F.V.E.W.L.L.S.A.[am]}|PEPTIDE2{[CCCCCCCCCCCCCCCC(=O)[*:2]].[gGlu]}$PEPTIDE1,PEPTIDE2,17:R3-2:R2$$$V2.0)	0.089 nM	0.046 nM	0.35 nM						
CCCCCCCCCCCCCCCC(=O)N[C@@H](CCC(=O)NCCCC[C@H](NC(=O)[C@H](CO)NC(=O)[C@H](CC(=O)O)NC(=O)[C@H](CC(C)C)NC(=O)[C@H](Cc1ccc(O)cc1)NC(=O)[C@@H](NC(=O)[C@H](CO)NC(=O)[C@H](Cc1ccc(O)cc1)NC(=O)[C@H](CC(=O)O)NC(=O)[C@H](CO)NC(=O)[C@@H](NC(=O)[C@H](Cc1ccccc1)NC(=O)[C@@H](NC(=O)CNC(=O)[C@H](CCC(N)=O)NC(=O)C(C)(C)NC(=O)[C@@H](N)Cc1ccc(O)cc1)[C@@H](C)O)[C@@H](C)O)[C@@H](C)CC)C(=O)N[C@@H](C)C(=O)N[C@@H](C)C(=O)N[C@@H](Cc1c[nH]cn1)C(=O)N[C@@H](CC(=O)O)C(=O)N[C@@H](Cc1ccccc1)C(=O)N[C@H](C(=O)N[C@@H](CCC(=O)O)C(=O)N[C@@H](Cc1c[nH]c2ccccc12)C(=O)N[C@@H](CC(C)C)C(=O)N[C@@H](CC(C)C)C(=O)N[C@@H](CCCNC(=N)N)C(=O)N[C@@H](C)C(N)=O)C(C)C)C(=O)O [Compound 27] (HELM PEPTIDE1{Y.[Aib].Q.G.T.F.T.S.D.Y.S.I.Y.L.D.S.K.A.A.H.D.F.V.E.W.L.L.R.A.[am]}|PEPTIDE2{[CCCCCCCCCCCCCCCC(=O)[*:2]].[gGlu]}$PEPTIDE1,PEPTIDE2,17:R3-2:R2$$$V2.0)	0.16 nM				0.07 nM		0.16 nM	0.07 nM	0.12 nM
CC[C@H](C)[C@H](NC(=O)[C@H](CO)NC(=O)[C@H](Cc1ccc(O)cc1)NC(=O)[C@H](CC(=O)O)NC(=O)[C@H](CO)NC(=O)[C@@H](NC(=O)[C@H](Cc1ccccc1)NC(=O)[C@@H](NC(=O)CNC(=O)[C@H](CCC(N)=O)NC(=O)C(C)(C)NC(=O)[C@@H](N)Cc1ccc(O)cc1)[C@@H](C)O)[C@@H](C)O)C(=O)N[C@@H](Cc1ccc(O)cc1)C(=O)N[C@@H](CC(C)C)C(=O)N[C@@H](CCC(=O)O)C(=O)N[C@@H](CCCCN)C(=O)N[C@@H](CCCCNC(=O)COCCOCCNC(=O)COCCOCCNC(=O)CC[C@H](NC(=O)CCCCCCCCCCCCCCCCC(=O)O)C(=O)O)C(=O)N[C@@H](C)C(=O)N[C@@H](C)C(=O)N[C@@H](CCCCN)C(=O)N[C@@H](CCC(=O)O)C(=O)N[C@@H](Cc1ccccc1)C(=O)N[C@H](C(=O)N[C@@H](CCC(=O)O)C(=O)N[C@@H](Cc1c[nH]c2ccccc12)C(=O)N[C@@H](CC(C)C)C(=O)N[C@@H](CC(C)C)C(=O)N[C@@H](CO)C(=O)N[C@@H](C)C(=O)NCC(=O)N1CCC[C@H]1C(=O)N[C@@H](CO)C(=O)N[C@@H](CO)C(=O)NCC(=O)N[C@@H](C)C(=O)N1CCC[C@H]1C(=O)N1CCC[C@H]1C(=O)N1CCC[C@H]1C(=O)N[C@@H](CO)C(N)=O)C(C)C [Compound 38] (H-Y[Aib]QGTFTSDYSIYLEKK([AEEA-AEEA-γGlu-C18 diacid])AAKEFVEWLLSAGPSSGAPPPS-NH2)					0.015 nM	0.27 nM	0.064 nM		
CC[C@H](C)[C@H](NC(=O)[C@H](CO)NC(=O)[C@H](Cc1ccc(O)cc1)NC(=O)[C@H](CC(=O)O)NC(=O)[C@H](CO)NC(=O)[C@@H](NC(=O)[C@H](Cc1ccccc1)NC(=O)[C@@H](NC(=O)CNC(=O)[C@H](CCC(N)=O)NC(=O)C(C)(C)NC(=O)[C@@H](N)Cc1ccc(O)cc1)[C@@H](C)O)[C@@H](C)O)C(=O)N[C@@H](Cc1ccc(O)cc1)C(=O)N[C@@H](CC(C)C)C(=O)N[C@@H](CCC(=O)O)C(=O)N[C@@H](CO)C(=O)N[C@@H](CCCCN)C(=O)N[C@@H](C)C(=O)N[C@@H](C)C(=O)N[C@@H](Cc1c[nH]cn1)C(=O)N[C@@H](CC(=O)O)C(=O)N[C@@H](Cc1ccccc1)C(=O)N[C@H](C(=O)N[C@@H](CCC(=O)O)C(=O)N[C@@H](Cc1c[nH]c2ccccc12)C(=O)N[C@@H](CC(C)C)C(=O)N[C@@H](CC(C)C)C(=O)N[C@@H](CO)C(=O)N[C@@H](C)C(N)=O)C(C)C [Compound 18] (HELM PEPTIDE1{Y.[Aib].Q.G.T.F.T.S.D.Y.S.I.Y.L.E.S.K.A.A.H.D.F.V.E.W.L.L.S.A.[am]}$$$$V2.0)	0.021 nM	0.15 nM	0.07 nM		0.15 nM				

From patent publication US10131702B2, “Glucagon-GLP-1-GIP triple agonist compounds” (priority 2013, dated 2018)
